Results taken from article PMC9516332 (Frontiers in Oncology, 2022).
Like-named read-outs stand apart in the source and are kept apart here.

Test system: 134 cancer cell lines
Experiment: Cell viability assay (ATPlite, 72 hours), IC50 on cancer cell line panel

IC50 (Homo sapiens, MOLM-13, read-out: IC50 in cell proliferation assay, MOLM-13 cell line (FLT3 ITD)): 12.6 µM
IC50 (Homo sapiens, MOLT-4, read-out: IC50 in cell proliferation assay, MOLT-4 cell line): > 31.6 µM
IC50 (Homo sapiens, MV4-11, read-out: IC50 in cell proliferation assay, MV4-11 cell line (FLT3 ITD)): 26.5 µM
IC50 (Homo sapiens, MeWo, read-out: IC50 in cell proliferation assay, MeWo cell line): > 31.6 µM
IC50 (Homo sapiens, NCCIT, read-out: IC50 in cell proliferation assay, NCC-IT cell line): > 31.6 µM
IC50 (Homo sapiens, NCI-H82, read-out: IC50 in cell proliferation assay, cell line NCI-H82): > 31.6 µM
IC50 (Homo sapiens, NCI-H460, read-out: IC50 in cell proliferation assay, NCI-H460 cell line): > 31.6 µM
IC50 (Homo sapiens, NCI-H661, read-out: IC50 in cell proliferation assay, NCI-H661 cell line): > 31.6 µM
IC50 (Homo sapiens, NCI-H716, read-out: IC50 in cell proliferation assay, cell line NCI-H716 (FGFR2-COL14A1)): > 31.6 µM
IC50 (Homo sapiens, NCI-H1650, read-out: IC50 in cell proliferation assay, NCI-H1650 cell line (EGFR exon19del)): > 31.6 µM
IC50 (Homo sapiens, NCI-H1975, read-out: IC50 in cell proliferation assay, NCI-H1975 cell line (EGFR p.L858R + p.T790M)): > 31.6 µM
IC50 (Homo sapiens, NCI-H2228, read-out: IC50 in cell proliferation assay, NCI-H2228 cell line (EML4-ALK)): > 31.6 µM
IC50 (Homo sapiens, OVCAR-3, read-out: IC50 in cell proliferation assay, cell line OVCAR-3): > 31.6 µM
IC50 (Homo sapiens, PFSK-1, read-out: IC50 in cell proliferation assay, cell line PFSK-1): > 31.6 µM
IC50 (Homo sapiens, RL95-2, read-out: IC50 in cell proliferation assay, cell line RL95-2 (EGFR p.A289V)): > 31.6 µM
IC50 (Homo sapiens, RPMI-7951, read-out: IC50 in cell proliferation assay, cell line RPMI-7951 (BRAF p.V600E)): > 31.6 µM
IC50 (Homo sapiens, RS4-11, read-out: IC50 in cell proliferation assay, cell line RS4;11): > 31.6 µM
IC50 (Homo sapiens, Rec1, read-out: IC50 in cell proliferation assay, cell line REC-1): > 31.6 µM
IC50 (Homo sapiens, SHP77, read-out: IC50 in cell proliferation assay, cell line SHP-77): > 31.6 µM
IC50 (Homo sapiens, SK-BR-3, read-out: IC50 in cell proliferation assay, cell line SK-BR-3 (ERBB2 amplification)): > 31.6 µM
IC50 (Homo sapiens, SK-N-AS, read-out: IC50 in cell proliferation assay, cell line SK-N-AS): > 31.6 µM
IC50 (Homo sapiens, SK-N-FI, read-out: IC50 in cell proliferation assay, cell line SK-N-FI): > 31.6 µM
IC50 (Homo sapiens, SK-N-MC, read-out: IC50 in cell proliferation assay, cell line SK-N-MC): > 31.6 µM
IC50 (Homo sapiens, SK-N-SH, read-out: IC50 in cell proliferation assay, cell line SK-N-SH (ALK p.F1174L)): > 31.6 µM
IC50 (Homo sapiens, SNU-5, read-out: IC50 in cell proliferation assay, cell line SNU-5 (MET amplification)): > 31.6 µM
IC50 (Homo sapiens, SNU-16, read-out: IC50 in cell proliferation assay, cell line SNU-16 (FGFR2 amplification)): > 31.6 µM
IC50 (Homo sapiens, SNU-C2B, read-out: IC50 in cell proliferation assay, cell line SNU-C2B (EGFR p.R165Q)): > 31.6 µM
IC50 (Homo sapiens, SU-DHL-1, read-out: IC50 in cell proliferation assay, cell line SU-DHL-1 (NPM1-ALK)): > 31.6 µM
IC50 (Homo sapiens, SU-DHL-6, read-out: IC50 in cell proliferation assay, cell line SU-DHL-6): > 31.6 µM
IC50 (Homo sapiens, SUP-T1, read-out: IC50 in cell proliferation assay, cell line SUP-T1): > 31.6 µM
IC50 (Homo sapiens, SW48, read-out: IC50 in cell proliferation assay, cell line SW48 (EGFR p.G719S)): > 31.6 µM
IC50 (Homo sapiens, SW480, read-out: IC50 in cell proliferation assay, cell line SW480): > 31.6 µM
IC50 (Homo sapiens, SW626, read-out: IC50 in cell proliferation assay, cell line SW626): > 31.6 µM
IC50 (Homo sapiens, SW780, read-out: IC50 in cell proliferation assay, cell line SW780 (FGFR3-BAIAP2L1)): > 31.6 µM
IC50 (Homo sapiens, SW837, read-out: IC50 in cell proliferation assay, cell line SW837): > 31.6 µM
IC50 (Homo sapiens, SW872, read-out: IC50 in cell proliferation assay, cell line SW872 (BRAF p.V600E)): > 31.6 µM
IC50 (Homo sapiens, SW900, read-out: IC50 in cell proliferation assay, cell line SW900): > 31.6 µM
IC50 (Homo sapiens, SW948, read-out: IC50 in cell proliferation assay, cell line SW948): > 31.6 µM
IC50 (Homo sapiens, SW982, read-out: IC50 in cell proliferation assay, cell line SW982 (BRAF p.V600E)): > 31.6 µM
IC50 (Homo sapiens, SW-620, read-out: IC50 in cell proliferation assay, cell line SW620): > 31.6 µM
IC50 (Homo sapiens, T98G, read-out: IC50 in cell proliferation assay, cell line T98G): > 31.6 µM
IC50 (Homo sapiens, TCC-SUP, read-out: IC50 in cell proliferation assay, cell line TCCSUP): > 31.6 µM
IC50 (Homo sapiens, THP-1, read-out: IC50 in cell proliferation assay, cell line THP-1): > 31.6 µM
IC50 (Homo sapiens, U2OS, read-out: IC50 in cell proliferation assay, cell line U2OS): > 31.6 µM
IC50 (Homo sapiens, U-87 MG, read-out: IC50 in cell proliferation assay, cell line U-87MG ATCC): > 31.6 µM
IC50 (Homo sapiens, U-118-MG, read-out: IC50 in cell proliferation assay, cell line U-118MG): > 31.6 µM
IC50 (Homo sapiens, UMUC3, read-out: IC50 in cell proliferation assay, cell line UM-UC-3): > 31.6 µM
IC50 (Hs766T, read-out: IC50 in cell proliferation assay, Hs 766T cell line): > 31.6 µM
IC50 (L-82, read-out: IC50 in cell proliferation assay, L-82 cell line (NPM1-ALK)): > 31.6 µM
IC50 (Rh30, read-out: IC50 in cell proliferation assay, cell line Rh30): > 31.6 µM
IC50 (read-out: IC50 in cell proliferation assay, 11-18 cell line (EGFR p.L858R)): > 31.6 µM
IC50 (read-out: IC50 in cell proliferation assay, Hs 852.T cell line): > 31.6 µM
IC50 (read-out: IC50 in cell proliferation assay, JAR cell line): > 31.6 µM
IC50 (read-out: IC50 in cell proliferation assay, cell line 5637): > 31.6 µM
IC50 (read-out: IC50 in cell proliferation assay, cell line A-388): > 31.6 µM
IC50 (read-out: IC50 in cell proliferation assay, cell line DB): > 31.6 µM
IC50 (read-out: IC50 in cell proliferation assay, cell line DEL (NPM1-ALK)): > 31.6 µM
IC50 (read-out: IC50 in cell proliferation assay, cell line ES-2 (BRAF p.V600E)): > 31.6 µM
IC50 (read-out: IC50 in cell proliferation assay, cell line PA-1): > 31.6 µM
IC50 (read-out: IC50 in cell proliferation assay, cell line PC-3): > 31.6 µM
IC50 (read-out: IC50 in cell proliferation assay, cell line RD): > 31.6 µM
IC50 (read-out: IC50 in cell proliferation assay, cell line RKO (BRAF p.V600E)): > 31.6 µM
IC50 (read-out: IC50 in cell proliferation assay, cell line RL): > 31.6 µM
IC50 (read-out: IC50 in cell proliferation assay, cell line RT-4 (FGFR3-TACC3)): > 31.6 µM
IC50 (read-out: IC50 in cell proliferation assay, cell line SR (NPM1-ALK)): > 31.6 µM
IC50 (read-out: IC50 in cell proliferation assay, cell line T24): > 31.6 µM
IC50 (read-out: IC50 in cell proliferation assay, cell line TT (RET p.C634W)): > 31.6 µM
IC50 (read-out: IC50 in cell proliferation assay, cell line VA-ES-BJ): > 31.6 µM
SMILES: O=C(Nc1cnn2ccc(N3CCC[C@@H]3c3cc(F)ccc3F)nc12)N1CC[C@H](O)C1 [larotrectinib]
